Laboratory results: US20240252506A1 (Hoffmann-La Roche Inc., priority 2021, published 2024)
≈ marks a conversion by molar mass, not a printed value.

Tested on: Escherichia coli ATCC 25922
Assay: Minimal Inhibitory Concentration (MIC) determination, broth microdilution (CLSI M07-A10)
Assay type: cell-based
Settings: Escherichia coli, ATCC25922, strain Escherichia coli ATCC 25922, 18-24 hours at 35±2° C., lowest concentration for complete growth inhibition (no visible growth), read-out: Escherichia coli growth inhibition MIC
Procedure, shortened: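 MIC read visually as the lowest concentration with complete growth inhibition after 18-24 h at 35±2° C, ambient air. Method follows CLSI M07-A10 broth microdilution, two-fold compound series, inoculum standardized to 0.5 McFarland then diluted 1:200.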

| SMILES | MIC [µg/mL] |
| --- | --- |
| CNCC(=O)NCCn1nnc2c(F)c3c(c(F)c21)CC(CN1CCC2(CC1)CN(c1cnc4c(n1)NC(=O)CO4)C(=O)O2)C3 (centres unmarked) [Example 61, N-[2-[4,8-Difluoro-6-[[2-oxo-3-(3-oxo-4H-pyrazino[2,3-b][1,4]oxazin-6-yl)-1-oxa-3,8-diazaspiro[4.5]decan-8-yl]methyl]-6,7-dihydro-5H-cyclopenta[f]benzotriazol-1-yl]ethyl]-2-(methylamino)acetamide] | 0.5 (≈ 0.798 µM) |
| CN(C)CCc1nc2cc3c(c(F)c2o1)CC(CN1CCC2(CC1)CN(c1cnc4c(n1)NC(=O)CO4)C(=O)O2)C3 (centres unmarked) [Example 62, 6-[8-[[2-[2-(Dimethylamino)ethyl]-8-fluoro-6,7-dihydro-5H-cyclopenta[f][1,3]benzoxazol-6-yl]methyl]-2-oxo-1-oxa-3,8-diazaspiro[4.5]decan-3-yl]-4H-pyrazino[2,3-b][1,4]oxazin-3-one] | 0.25 (≈ 0.442 µM) |
| CN(C)[C@H](CO)Cc1nc2c(F)c3c(c(F)c2[nH]1)CC(CN1CCC2(CC1)CN(c1cnc4c(n1)NC(=O)CO4)C(=O)O2)C3 [Example 63, 6-[8-[[2-[(2S)-2-(Dimethylamino)-3-hydroxy-propyl]-4,8-difluoro-3,5,6,7-tetrahydrocyclopenta[f]benzimidazol-6-yl]methyl]-2-oxo-1-oxa-3,8-diazaspiro[4.5]decan-3-yl]-4H-pyrazino[2,3-b][1,4]oxazin-3-one] | 0.25 (≈ 0.408 µM) |
| CN(C)CCn1nnc2c(F)c3c(c(F)c21)CC(CN1CCC2(CC1)CN(c1cnc4c(n1)NC(=O)CO4)C(=O)O2)C3 (centres unmarked) [Example 64, 6-[8-[[1-[2-(Dimethylamino)ethyl]-4,8-difluoro-6,7-dihydro-5H-cyclopenta[f]benzotriazol-6-yl]methyl]-2-oxo-1-oxa-3,8-diazaspiro[4.5]decan-3-yl]-4H-pyrazino[2,3-b][1,4]oxazin-3-one] | 0.25 (≈ 0.428 µM) |
| CN(C)CCn1nnc2c(F)c3c(cc21)CC(CN1CCC2(CC1)CN(c1cnc4c(n1)NC(=O)CO4)C(=O)O2)C3 (centres unmarked) [Example 65, 6-[8-[[3-[2-(Dimethylamino)ethyl]-8-fluoro-6,7-dihydro-5H-cyclopenta[f]benzotriazol-6-yl]methyl]-2-oxo-1-oxa-3,8-diazaspiro[4.5]decan-3-yl]-4H-pyrazino[2,3-b][1,4]oxazin-3-one] | 0.125 (≈ 0.221 µM) |
| C[C@@H](N)c1nc2c(F)c3c(c(F)c2n1C)CC(CN1CCC2(CC1)CN(c1cnc4c(n1)NC(=O)CO4)C(=O)O2)C3 (stereo partly drawn) [Example 68, 6-[8-[[2-[(1R)-1-aminoethyl]-4,8-difluoro-1-methyl-6,7-dihydro-5H-cyclopenta[f]benzimidazol-6-yl]methyl]-2-oxo-1-oxa-3,8-diazaspiro[4.5]decan-3-yl]-4H-pyrazino[2,3-b][1,4]oxazin-3-one] | 0.125 (≈ 0.22 µM) |
| CNCCc1nc2cc3c(c(F)c2[nH]1)CC(CN1CCC2(CC1)CN(c1cnc4c(n1)NC(=O)CO4)C(=O)O2)C3 (centres unmarked) [Example 69, 6-[8-[[8-fluoro-2-[2-(methylamino)ethyl]-1,5,6,7-tetrahydrocyclopenta[f]benzimidazol-6-yl]methyl]-2-oxo-1-oxa-3,8-diazaspiro[4.5]decan-3-yl]-4H-pyrazinio[2,3-b][1,4]oxazin-3-one] | 0.25 (≈ 0.454 µM) |
| COCCNCc1nc2c(F)c3c(cc2[nH]1)CC(CN1CCC2(CC1)CN(c1cnc4c(n1)NC(=O)CO4)C(=O)O2)C3 (centres unmarked) [Example 70, 6-[8-[[8-fluoro-2-[(2-methoxyethylamino)methyl]-3,5,6,7-tetrahydrocyclopenta[f]benzimidazol-6-yl]methyl]-2-oxo-1-oxa-3,8-diazaspiro[4.5]decan-3-yl]-4H-pyrazino[2,3-b][1,4]oxazin-3-one] | 0.25 (≈ 0.431 µM) |
| CNC(=O)CNCc1nc2c(F)c3c(cc2[nH]1)CC(CN1CCC2(CC1)CN(c1cnc4c(n1)NC(=O)CO4)C(=O)O2)C3 (centres unmarked) [Example 71, 2-[[8-fluoro-6-[[2-oxo-3-(3-oxo-4H-pyrazino[2,3-b][1,4]oxazin-6-yl)-1-oxa-3,8-diazaspiro[4.5]decan-8-yl]methyl]-3,5,6,7-tetrahydrocyclopenta[f]benzimidazol-2-yl]methylamino]-N-methyl-acetamide] | 1 (≈ 1.68 µM) |
| Cc1nc2c(F)c3c(cc2n1CCN)CC(CN1CCC2(CC1)CN(c1cnc4c(n1)NC(=O)CO4)C(=O)O2)C3 (centres unmarked) [Example 73, 6-[8-[[3-(2-Aminoethyl)-8-fluoro-2-methyl-6,7-dihydro-5H-cyclopenta[f]benzimidazol-6-yl]methyl]-2-oxo-1-oxa-3,8-diazaspiro[4.5]decan-3-yl]-4H-pyrazino[2,3-b][1,4]oxain-3-one] | 2 (≈ 3.63 µM) |
| NCCn1nc2cc3c(c(F)c2n1)CC(CN1CCC2(CC1)CN(c1cnc4c(n1)NC(=O)CO4)C(=O)O2)C3 (centres unmarked) [Example 74, 6-[8-[[2-(2-aminoethyl)-8-fluoro-6,7-dihydro-5H-cyclopenta[f]benzotriazol-6-yl]methyl]-2-oxo-1-oxa-3,8-diazaspiro[4.5]decan-3-yl]-4H-pyrazino[2,3-b][1,4]oxazin-3-one] | 0.06 (≈ 0.112 µM) |
| NCCn1nnc2c(F)c3c(cc21)CC(CN1CCC2(CC1)CN(c1cnc4c(n1)NC(=O)CO4)C(=O)O2)C3 (centres unmarked) [Example 75, 6-[8-[[3-(2-aminoethyl)-8-fluoro-6,7-dihydro-5H-cyclopenta[f]benzotriazol-6-yl]methyl]-2-oxo-1-oxa-3,8-diazaspiro[4.5]decan-3-yl]-4H-pyrazino[2,3-b][1,4]oxazin-3-one] | ≤ 0.06 |
| NCCn1nnc2cc3c(c(F)c21)CC(CN1CCC2(CC1)CN(c1cnc4c(n1)NC(=O)CO4)C(=O)O2)C3 (centres unmarked) [Example 76, 6-[8-[[1-(2-aminoethyl)-8-fluoro-6,7-dihydro-5H-cyclopenta[f]benzotriazol-6-yl]methyl]-2-oxo-1-oxa-3,8-diazaspiro[4.5]decan-3-yl]-4H-pyrazino[2,3-b][1,4]oxazin-3-one] | 0.125 (≈ 0.233 µM) |
| NC1(Cn2nc3c(F)c4c(c(F)c3n2)CC(CN2CCC3(CC2)CN(c2cnc5c(n2)NC(=O)CO5)C(=O)O3)C4)CC1.O=C(O)C(F)(F)F [Example 77, 6-[8-[[2-[(1-aminocyclopropyl)methyl]-4,8-difluoro-6,7-dihydro-5H-cyclopenta[f]benzotriazol-6-yl]methyl]-2-oxo-1-oxa-3,8-diazaspiro[4.5]decan-3-yl]-4H-pyrazino[2,3-b][1,4]oxazin-3-one; 2,2,2-trifluoroacetic acid] | 0.25 |
| NC1(Cn2nnc3c(F)c4c(c(F)c32)CC(CN2CCC3(CC2)CN(c2cnc5c(n2)NC(=O)CO5)C(=O)O3)C4)CC1 (centres unmarked) [Example 78, 6-[8-[[1-[(1-aminocyclopropyl)methyl]-4,8-difluoro-6,7-dihydro-5H-cyclopenta[f]benzotriazol-6-yl]methyl]-2-oxo-1-oxa-3,8-diazaspiro[4.5]decan-3-yl]-4H-pyrazino[2,3-b][1,4]oxazin-3-one] | 0.25 (≈ 0.43 µM) |
| O=C1COc2ncc(N3CC4(CCN(CC5Cc6c(c(F)c7nn(C8CNC8)nc7c6F)C5)CC4)OC3=O)nc2N1.O=CO [Example 79, 6-[8-[[2-(azetidin-3-yl)-4,8-difluoro-6,7-dihydro-5H-cyclopenta[f]benzotriazol-6-yl]methyl]-2-oxo-1-oxa-3,8-diazaspiro[4.5]decan-3-yl]-4H-pyrazino[2,3-b][1,4]oxazin-3-one; formic acid] | 0.125 |
| O=C1COc2ncc(N3CC4(CCN(CC5Cc6c(c(F)c7c(nnn7C7CNC7)c6F)C5)CC4)OC3=O)nc2N1 (centres unmarked) [Example 80, 6-[8-[[1-(azetidin-3-yl)-4,8-difluoro-6,7-dihydro-5H-cyclopenta[f]benzotriazol-6-yl]methyl]-2-oxo-1-oxa-3,8-diazaspiro[4.5]decan-3-yl]-4H-pyrazino[2,3-b][1,4]oxazin-3-one] | 0.125 (≈ 0.22 µM) |
| NCCn1nc2cc(F)c3c(c2n1)CC(CN1CCC2(CC1)CN(c1cnc4c(n1)NC(=O)CO4)C(=O)O2)C3.O=C(O)C(F)(F)F (centres unmarked) [Example 83, 6-[8-[[2-(2-aminoethyl)-5-fluoro-7,8-dihydro-6H-cyclopenta[e]benzotriazol-7-yl]methyl]-2-oxo-1-oxa-3,8-diazaspiro[4.5]decan-3-yl]-4H-pyrazino[2,3-b][1,4]oxazin-3-one; 2,2,2-trifluoroacetic acid] | ≤ 0.06 |
| NCCn1nnc2cc(F)c3c(c21)CC(CN1CCC2(CC1)CN(c1cnc4c(n1)NC(=O)CO4)C(=O)O2)C3 (centres unmarked) [Example 84, 6-[8-[[1-(2-aminoethyl)-5-fluoro-7,8-dihydro-6H-cyclopenta[e]benzotriazol-7-yl]methyl]-2-keto-1-oxa-3,8-diazaspiro[4.5]decan-3-yl]-4H-pyrazino[2,3-b][1,4]oxazin-3-one] | 0.25 (≈ 0.465 µM) |
| NCCn1nnc2c3c(c(F)cc21)CC(CN1CCC2(CC1)CN(c1cnc4c(n1)NC(=O)CO4)C(=O)O2)C3 (centres unmarked) [Example 85, 6-[8-[[3-(2-aminoethyl)-5-fluoro-7,8-dihydro-6H-cyclopenta[e]benzotriazol-7-yl]methyl]-2-keto-1-oxa-3,8-diazaspiro[4.5]decan-3-yl]-4H-pyrazino[2,3-b][1,4]oxazin-3-one] | 0.25 (≈ 0.465 µM) |
| C[C@@H](N)c1nc2cc3c(c(F)c2o1)CC(CN1CCC2(CC1)CN(c1cnc4c(n1)NC(=O)CO4)C(=O)O2)C3 (stereo partly drawn) [Example 90, 6-[8-[[2-[(1R)-1-aminoethyl]-8-fluoro-6,7-dihydro-5H-cyclopenta[f][1,3]benzoxazol-6-yl]methyl]-2-oxo-1-oxa-,38-diazaspiro[4.5]decan-3-yl]-4H-pyrazino[2,3-b][1,4]oxazin-3-one] | 0.125 (≈ 0.233 µM) |
| CNCc1nc2cc(F)c3c(c2[nH]1)CC(CN1CCC2(CC1)CN(c1cnc4c(n1)NC(=O)CO4)C(=O)O2)C3 (centres unmarked) [Example 92, 6-[8-[[5-fluoro-2-(methylaminomethyl)-1,6,7,8-tetrahydrocyclopenta[e]benzimidazol-7-yl]methyl]-2-oxo-1-oxa-3,8-diazaspiro[4.5]decan-3-yl]-4H-pyrazino[2,3-b][1,4]oxazin-3-one] | 0.125 (≈ 0.233 µM) |
| CNCc1nc2c(F)c3c(cc2o1)CC(CN1CCC2(CC1)CN(c1cnc4c(n1)NC(=O)CO4)C(=O)O2)C3 (centres unmarked) [Example 93, 6-[8-[[4-fluoro-2-(methylaminomethyl)-6,7-dihydro-5H-cyclopenta[f][1,3]benzoxazol-6-yl]methyl]-2-oxo-1-oxa-3,8-diazaspiro[4.5]decan-3-yl]-4H-pyrazino[2,3-b][1,4]oxazin-3-one] | 0.125 (≈ 0.233 µM) |
